According to article PMC7414866, “The Rnf complex is a Na^+ coupled respiratory enzyme in a fermenting bacterium, Thermotoga maritima” (Communications Biology, 2020):

Target: T1, Na+-F1FO ATP synthase (Thermotoga maritima, UniProt O50550+Q9X1U7+Q9X1V0)
T1 construct: gene atpE; native F1FO complex purified with DDM, no tags; 550 kDa on native PAGE; co-purified with Rnf; with ATP synthase gamma chain; ATP synthase subunit delta; ATP synthase epsilon chain; ATP synthase subunit a; ATP synthase subunit b
Assay: ATP hydrolysis (phosphate release) after preincubation
Assay type: biochemical
Conditions: covalent; preincubation without Na+ 30 min room temperature, then 5 min 80 °C; 3 mM K2-ATP, pH 7.4; competes with Na+

C(=NC1CCCCC1)=NC1CCCCC1 [DCCD]
inhibition: DCCD inhibited ATP hydrolysis but inhibition was relieved by addition of Na^+
